{"source": "paper PMC11868579", "about": "(Nature Communications, 2024)", "key": {"c-Myc-activity": {"test_system": "c-Myc-activity", "experiment": "c-Myc-regulated luciferase reporter in SW620 cells", "type": "cell-based, human", "design": "CMV, Average / c-Myc, Average: unit not given here", "settings": "for c-Myc, Average / CMV, Average: SW620; for c-Myc, Average: c-Myc-regulated firefly luciferase reporter; for CMV, Average: constitutive CMV promoter-regulated renilla luciferase reporter", "method": "Luminescence was measured using the Dual-glo luciferase assay (mean ± SEM from 3 biological replicates). b SW620 cells were transfected with a c-Myc-regulated firefly luciferase expression reporter or a constitutive CMV promoter-regulated renilla luciferase reporter. Cells were treated for 24 hr with 1 or 10 µM compound 4 or the […] kinase inhibitor AZD8055 as positive control (mean ± SEM from 3 biological replicates). An ordinary one-way ANOVA with Tukey multiple comparisons test was performed comparing c-Myc-regulated firefly luciferase expression or CMV-regulated Renilla luciferase expression following the different treatments. For c-Myc-regulated firefly luciferase expression, all significant p values […]\nwere <0.0001. […]\nSource data is located in the Supplementary Source Data file"}, "[1]": {"test_system": "cap-dependent and cap-independent (IRES) protein synthesis", "experiment": "Bicistronic protein synthesis reporter in H1299 cells", "type": "cell-based, human", "settings": "H1299; 100 μM, 24 hr; normalisation not stated", "method": "H1299 cells were transfected with a biscistronic vector using Lipofectamine 3000 transfection reagent (Fisher Scientific, cat#L3000008) for 24 hr and then treated with compounds for further 24 h. Luminescence was measured after 24 h of compound treatment using the Dual Glo luciferase reporter assays as above."}, "[2]": {"target": "T1, eIF4E minor variant D127N (N127) (Homo sapiens, UniProt P06730, D127N)", "T1 construct": "made in house; host or cells: E. coli BL21-CodonPlus (DE3)-RIPL", "T1 sequence (P06730 36-217 D127N)": "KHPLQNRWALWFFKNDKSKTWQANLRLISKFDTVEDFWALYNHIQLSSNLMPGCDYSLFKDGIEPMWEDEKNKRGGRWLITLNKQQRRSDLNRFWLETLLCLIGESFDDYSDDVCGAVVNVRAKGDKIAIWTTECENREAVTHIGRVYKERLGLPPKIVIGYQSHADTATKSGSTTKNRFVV", "experiment": "Isothermal titration calorimetry, eIF4E minor variant", "type": "binding", "settings": "for Kd: ITC; for Kd / LE (ligand efficiency): minor variant D127N", "method": "ITC experiments were performed on either a MicroCal VP-ITC or a MicroCal Auto-ITC200 at 25 °C in a buffer comprising 50 mM HEPES, 100 mM NaCl, 1 mM TCEP and 5% DMSO at pH 7.5. Typical titrations on the MicroCal VP-ITC were performed using 17 × 16.4 µL injections with a 250 s spacing between each injection and with a stirring speed of 307 rpm. Typical titrations on the MicroCal Auto-ITC200 were performed using 12 × 3 µL injections with a 150 s spacing between each injection and with a stirring speed of 750 rpm. ITC data analyses were performed with Origin 7.0 software using the “One Set of Sites” model."}, "[3]": {"test_system": "H1299 eIF4E-dTAG clones proteome", "experiment": "Global proteome profiling (DIA LC-MS/MS)", "type": "cell-based, human", "settings": "500 nM, 72 hr", "method": "Cells (1 × 10^5 cells/ml) were lysed using SDS-free lysis and the lysate made up to 1 mL. Disulphide bounds were disrupted by reduction and alkylation. DTT was added to sample with a final concentration of 10 mM and incubated at 37 °C for 30 min. Iodoacetamide was then added to sample with a final concentration of 55 mM and incubated in the dark at room temperature for 30 min. The protein mixture was then enriched through a solid phase (SPE) C18 column. The C18 column was activated with 1 ml methanol at a rate of 3 drops/second, followed by 1 ml 0.1% formic acid to condition the column. The diluted protein mixture was loaded onto the column at 1 drop/sec, the column was washed with 3 ml 0.1% formic acid and enriched proteins were eluted with 800 μl 75% acetonitrile at a rate of 0.5 drops per second and the eluate was freeze-dried. The freeze-dried proteins were redissolved in 20 μl 50 mM ammonium bicarbonate and quantified according to the manufacturer’s instructions (Pierce Quantitative Fluorometric Peptide Assay cat# 23290). A small aliquot was removed for PAGE QC analysis on a 12% polyacrylamide gel. The remainder of the protein samples were digested with trypsin at a ratio of 1:20 for enzyme and proteins (w/w). The mixture was incubated for 14–16 h at 37 °C.\nFor DDA (Data Dependent Acquisition) library construction (Nano-LC-MS/MS) the dried peptide samples were reconstituted with mobile phase A (2% ACN, 0.1% FA), centrifuged at 20,000 g for 10 minutes, and the supernatant was taken for injection. Separation was carried out by a Thermo UltiMate 3000 UHPLC liquid chromatograph. […] The main parameters were set: ion source voltage was set to 1.9 kV, MS1 mass spectrometer scanning range was 350 ~ 1650 m/z; resolution was set to 120,000; maximal injection time (MIT) 90 ms; MS/MS collision type HCD, collision energy NCE 30; MS/MS resolution 30,000, MIT was auto mode, dynamic exclusion duration 120 seconds. The start m/z for MS/MS was fixed to auto mode. Precursor for MS/MS scan satisfied: charge range 2+ to 6 + , top 30 precursors with intensity over 2E4. AGC was: MS 300%, MS/MS 100%.\nPeptides separated by liquid phase chromatography were ionized by a nanoESI source and then passed to an Orbitrap Exploris480 (Thermo Fisher Scientific, San Jose,CA) to acquire mass spectrometry data in DIA mode. The main parameters were set: ion source voltage was set to 1.9 kV, MS1 mass spectrometer scanning range was 400 ~ 1250 m/z; resolution was set to 120,000; maximal injection time (MIT) 90 ms; 400 ~ 1250 m/z was equally divided to 50 continuous windows MS/MS scan. MS/MS collision type HCD, collision energy NCE 30; MIT was auto mode. Fragment ions were scanned in Orbitrap, MS/MS resolution 30,000. AGC was: MS 300%, MS/MS 1000%.\nDIA data was analysed using the iRT peptides for retention time calibration. Then, based on the target-decoy model applicable to SWATH-MS, false positive control was performed with FDR 1% to obtain significant quantitative results. MSstats was used for the statistical evaluation of significant differences in proteins or peptides from different samples. The core algorithm is linear mixed effect model that pre-processes the data according to the predefined comparison group, and then performed the significance test based on the model. Thereafter, differential protein screening was performed based on the fold change >2 and p-value < 0.05 as the criterion for the significant difference."}, "MCL1 protein expression": {"test_system": "MCL1 protein expression", "experiment": "Immunoblot of MCL1 in eIF4E-dTAG clones and rescue models", "type": "cell-based, human", "settings": "eIF4E-dTAG clones", "method": "One sample t and Wilcoxon tests (two-sided), using 100% as hypothetical control value, were performed and compared with the control in each cell line. b, c Real-time cell growth measurements monitored every 4 h over a 6-day period. Cell confluency (%) was calculated using Incucyte Zoom software and (mean ± SEM n = 3 biological replicates). Ordinary one-way ANOVA with Tukey multiple comparisons test compared treatment with the control in each cell line. […] Vinculin was used as loading control. H1299 (PAR) cell lines were treated with 1 μM dTAG^V-1 only as qualitative control. Vinculin was used as loading control. […] Significant p-values (< 0.05) are shown on the plots and the source data is located in the Source Data file.\nAfter seeding overnight in 6 well plates (Corning, cat#353046), cells were treated with compounds for the indicated times and concentration, harvested and the cell pellet lysed on ice in cell lysis buffer (Cell Signaling, cat#9803), supplemented with 1x Halt^TM protease inhibitor cocktail (Fisher Scientific, cat#78429) and cOmplete^TM protease inhibitor cocktail (Sigma-Aldrich, cat#11836153001) for 1 hr. Protein was quantified using BCA protein kit (Fisher Scientific, cat#23225). Western blot was performed using NuPAGE^TM 4–12% Bis-Tris gels (Fisher Scientific, cat#NP0336BOX) and transferred using the Invitrogen iBLOT^TM gel transfer device system (Fisher Scientific, Cat#IB21001). […] All primary antibodies were diluted (1:1000) in 5% BSA (Sigma-Aldrich, cat#A7906) in 1x TBS and 0.1% Tween 20 (Sigma-Aldrich, cat#P1379), except for vinculin (1:2000) that was diluted in casein blocker (Sigma-Aldrich, cat#1610782). This was followed by incubation with the secondary HRP-conjugated antibodies (anti-mouse HRP, Bio-rad, Watford, UK, cat#1705047; anti-rabbit HRP, Sigma-Aldrich, cat#NA934) in casein for 1 h at RT. ECL HRP substrate (SuperSignalTM West Pico, Fisher Scientific, cat#34578) was then added to detect protein targets by chemiluminescence and images acquired using the ChemiDocTM system (Bio-Rad). Quantitative densitometry analysis of protein bands was performed using Image J v1.53 software."}}, "note": "Where “and” joins values, the source holds several entries; their conditions need not be identical. Equal values may be shown once.", "data": [{"smiles": "COc1ccc(-c2ccc3c(N4CCOC[C@@H]4C)nc(N4CCOC[C@@H]4C)nc3n2)cc1CO", "note": "[AZD8055, reference compound]", "values": [{"measurement": "c-Myc, Average", "setting": "c-Myc-activity; 1μM", "value": 19.11}, {"measurement": "CMV, Average", "setting": "c-Myc-activity; 1μM", "value": 86.61}, {"measurement": "c-Myc, Average", "setting": "c-Myc-activity; 10μM", "value": 13.82}, {"measurement": "CMV, Average", "setting": "c-Myc-activity; 10μM", "value": 130.75}, {"measurement": "activity in c-Myc reporter assay", "setting": "c-Myc-activity; SW620 cells, 1 or 10 µM, 24 hr", "value": "clearly inhibited activity"}]}, {"smiles": "C[C@@H]1C[C@@H]([C@H](O)CC2CC(=O)NC(=O)C2)C(=O)[C@@H](C)C1", "note": "[CHX, cycloheximide, reference compound]", "values": [{"measurement": "protein synthesis reporter signal (cap-dependent luciferase / IRES luciferase), replicate values", "setting": "[1]", "value": "0.353 and 0.410 and 0.685 and 0.311 and 0.478 and 0.325"}]}, {"smiles": "Oc1cccc(-c2ccccc2)c1", "note": "[Compound 1, [1,1'-biphenyl]-3-ol]", "values": [{"measurement": "Kd", "setting": "[2]", "value": 400, "unit": "µM"}, {"measurement": "LE (ligand efficiency)", "setting": "[2]", "value": "0.36 (kcal/mol)/heavy atom"}]}, {"smiles": "O=C(O)C1(c2ccc(Cl)cc2)CCCC1", "note": "[Compound 2, 1-(4-chlorophenyl)cyclopentane-1-carboxylic acid]", "values": [{"measurement": "Kd", "setting": "[2]", "value": 7400, "unit": "µM"}, {"measurement": "LE (ligand efficiency)", "setting": "[2]", "value": "0.19 (kcal/mol)/heavy atom"}]}, {"smiles": "CC(O)c1ccc(-c2ccccc2F)cc1", "note": "(stereo not drawn) [Compound 3, 1-{2'-fluoro-[1,1'-biphenyl]-4-yl}ethan-1-ol]", "values": [{"measurement": "Kd", "setting": "[2]", "value": 20, "unit": "µM"}, {"measurement": "improvement in affinity", "setting": "[2]; compound 3 versus compound 1", "value": 20, "unit": "fold"}, {"measurement": "LE (ligand efficiency)", "setting": "[2]", "value": "0.4 (kcal/mol)/heavy atom"}]}, {"smiles": "CC[C@H](C(=O)N1CCCC[C@H]1C(=O)O[C@H](CCc1ccc(OC)c(OC)c1)c1ccccc1OCC(=O)NCCCCCCC(=O)N[C@H](C(=O)N1C[C@H](O)C[C@H]1C(=O)N[C@@H](C)c1ccc(-c2scnc2C)cc1)C(C)(C)C)c1cc(OC)c(OC)c(OC)c1", "note": "[dTAG-v1]", "values": [{"measurement": "Normalised signal intensity, A2M", "setting": "[3]; H1299 C2-2 dTAG clone", "value": 17.256}, {"measurement": "Normalised signal intensity, AAAS (first entry, r5)", "setting": "[3]; H1299 C2-2 dTAG clone", "value": 16.230}, {"measurement": "Normalised signal intensity, AAAS (second entry, r6)", "setting": "[3]; H1299 C2-2 dTAG clone", "value": 19.251}, {"measurement": "Normalised signal intensity, AACS", "setting": "[3]; H1299 C2-2 dTAG clone", "value": 16.229}, {"measurement": "Normalised signal intensity, A2M", "setting": "[3]; H1299 C3-1 dTAG clone", "value": 17.317}, {"measurement": "Normalised signal intensity, AAAS (first entry, r5)", "setting": "[3]; H1299 C3-1 dTAG clone", "value": 15.976}, {"measurement": "Normalised signal intensity, AAAS (second entry, r6)", "setting": "[3]; H1299 C3-1 dTAG clone", "value": 18.995}, {"measurement": "Normalised signal intensity, AACS", "setting": "[3]; H1299 C3-1 dTAG clone", "value": 16.150}, {"measurement": "Normalised signal intensity, A2M", "setting": "[3]; H1299 N2-1 dTAG clone", "value": 17.029}, {"measurement": "Normalised signal intensity, AAAS (first entry, r5)", "setting": "[3]; H1299 N2-1 dTAG clone", "value": 15.914}, {"measurement": "Normalised signal intensity, AAAS (second entry, r6)", "setting": "[3]; H1299 N2-1 dTAG clone", "value": 19.083}, {"measurement": "Normalised signal intensity, AACS", "setting": "[3]; H1299 N2-1 dTAG clone", "value": 15.496}, {"measurement": "Normalised signal intensity, A2M", "setting": "[3]; H1299 N3-2 dTAG clone", "value": 16.465}, {"measurement": "Normalised signal intensity, AAAS (first entry, r5)", "setting": "[3]; H1299 N3-2 dTAG clone", "value": 15.682}, {"measurement": "Normalised signal intensity, AAAS (second entry, r6)", "setting": "[3]; H1299 N3-2 dTAG clone", "value": 18.655}, {"measurement": "Normalised signal intensity, AACS", "setting": "[3]; H1299 N3-2 dTAG clone", "value": 16.041}]}, {"smiles": "CC[C@H](C(=O)N1CCCC[C@H]1C(=O)O[C@H](CCc1ccc(OC)c(OC)c1)c1ccccc1OCC(=O)NCCCCCCC(=O)N[C@H](C(=O)N1C[C@@H](O)C[C@@H]1C(=O)N[C@@H](C)c1ccc(-c2scnc2C)cc1)C(C)(C)C)c1cc(OC)c(OC)c(OC)c1", "note": "[neg-dTAG^V-1, reference compound]", "values": [{"measurement": "MCL1 protein after treatment", "setting": "MCL1 protein expression", "value": "Loss of MCL1 protein was not observed"}]}]}
